Laboratory results taken from PubChem BioAssay AID328 (DTP/NCI, 2004).
“And” between values parts separate entries of the source, which are not always exact repeats. Equal values may be shown once. Toxic doses and inconclusive results are not listed.

Test system: BDF1 mice, P388 leukemia ip, median survival T/C
Test: NCI In Vivo Anticancer Drug Screen. Data for tumor model P388 Leukemia (intraperitoneal) in B6D2F1 (BDF1) mice
Conditions: endpoint: median survival time, higher = longer survival
How it was run: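 T/C = treated-group survival ÷ vehicle-control survival; tumour transplanted into mice before dosing.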

[1] = dose: 6.25 mg/kg/injection, schedule: Q01DX009 (ip), vehicle: Klucel (hydroxypropylcellulose) (HPC)
[2] = dose: 12.5 mg/kg/injection, schedule: Q01DX009 (ip), vehicle: Klucel (hydroxypropylcellulose) (HPC)
[3] = dose: 25.0 mg/kg/injection, schedule: Q01DX009 (ip), vehicle: Klucel (hydroxypropylcellulose) (HPC)
[4] = dose: 100.0 mg/kg/injection, schedule: Q01DX009 (ip), vehicle: Klucel (hydroxypropylcellulose) (HPC)
[5] = dose: 100.0 mg/kg/injection, schedule: Q04DX003 (ip), vehicle: saline with Tween-80
[6] = dose: 200.0 mg/kg/injection, schedule: Q04DX003 (ip), vehicle: saline with Tween-80
[7] = dose: 25.0 mg/kg/injection, schedule: Q01DX009 (ip), vehicle: saline with Tween-80
[8] = dose: 50.0 mg/kg/injection, schedule: Q01DX009 (ip), vehicle: saline with Tween-80
[9] = dose: 100.0 mg/kg/injection, schedule: Q01DX009 (ip), vehicle: saline with Tween-80
[10] = dose: 25.0 mg/kg/injection, schedule: Q04DX003 (ip), vehicle: saline with Tween-80
[11] = dose: 50.0 mg/kg/injection, schedule: Q04DX003 (ip), vehicle: saline with Tween-80
[12] = dose: 12.5 mg/kg/injection, schedule: Q01DX009 (ip), vehicle: saline with Tween-80
[13] = dose: 6.25 mg/kg/injection, schedule: Q01DX009 (ip), vehicle: saline
[14] = dose: 12.5 mg/kg/injection, schedule: Q01DX009 (ip), vehicle: saline
[15] = dose: 25.0 mg/kg/injection, schedule: Q01DX009 (ip), vehicle: saline
[16] = dose: 200.0 mg/kg/injection, schedule: Q01DX009 (ip), vehicle: saline with Tween-80
[17] = dose: 400.0 mg/kg/injection, schedule: Q04DX003 (ip), vehicle: saline with Tween-80

## O=c1[nH]cc(F)c(=O)[nH]1.[Tl]
[1]
  T/C: 117 % of control
[2]
  T/C: 102 % of control and 110 % of control
[3]
  T/C: 87 % of control
[4]
  T/C: 91 % of control

## Cc1ncc([N+](=O)[O-])n1CCN=[N+]=[N-]
[5]
  T/C: 104 % of control
[6]
  T/C: 123 % of control

## COc1ccccc1N1CCN(CC(O)COc2ccccc2C(C)=O)CC1 (stereo not drawn)
[7]
  T/C: 95 % of control
[8]
  T/C: 91 % of control
[9]
  T/C: 112 % of control

## C/C=C/N=NNc1ccccc1OC
[10]
  T/C: 113 % of control
[11]
  T/C: 104 % of control
[5]
  T/C: 104 % of control

## COc1ccc(C2=NC(c3ccccc3)NC(c3ccccc3)/C2=C/c2ccccc2)cc1 (stereo not drawn)
dose: 6.25 mg/kg/injection, schedule: Q01DX009 (ip), vehicle: saline with Tween-80
  T/C: 106 % of control
[12]
  T/C: 99 % of control
[7]
  T/C: 99 % of control
[8]
  T/C: 91 % of control and 94 % of control
[9]
  T/C: 95 % of control

## CCCCCCCCCCCCCCCC(=O)N1CCC(N2CCCCC2)CC1
dose: 200.0 mg/kg/injection, schedule: Q01DX001 (ip), vehicle: Klucel (hydroxypropylcellulose) (HPC)
  T/C: 109 % of control
dose: 400.0 mg/kg/injection, schedule: Q01DX001 (ip), vehicle: Klucel (hydroxypropylcellulose) (HPC)
  T/C: 90 % of control

## COc1ccc(/C=N/NC(=O)C[n+]2ccccc2)c(OC)c1
[7]
  T/C: 104 % of control
[10]
  T/C: 118 % of control
[8]
  T/C: 109 % of control
[11]
  T/C: 104 % of control
[9]
  T/C: 100 % of control
[5]
  T/C: 104 % of control

## CC(C)[CH2][Sn]([CH2]C(C)C)([CH2]C(C)C)[C](C)(C)C
dose: 100.0 mg/kg/injection, schedule: Q04DX003 (ip), vehicle: saline
  T/C: 103 % of control
dose: 200.0 mg/kg/injection, schedule: Q04DX003 (ip), vehicle: saline
  T/C: 112 % of control
dose: 400.0 mg/kg/injection, schedule: Q04DX003 (ip), vehicle: saline
  T/C: 112 % of control

## Cc1ccc(CNc2ccccc2)cc1
dose: 25.0 mg/kg/injection, schedule: Q04DX003 (ip), vehicle: other
  T/C: 120 % of control
dose: 50.0 mg/kg/injection, schedule: Q04DX003 (ip), vehicle: other
  T/C: 105 % of control
dose: 100.0 mg/kg/injection, schedule: Q04DX003 (ip), vehicle: other
  T/C: 110 % of control

## Cc1ccnc(=O)[nH]1
dose: 3.13 mg/kg/injection, schedule: Q01DX009 (ip), vehicle: saline
  T/C: 103 % of control
[13]
  T/C: 115 % of control
[14]
  T/C: 99 % of control
[15]
  T/C: 105 % of control

## CN(CCOS(C)(=O)=O)CCOS(C)(=O)=O
dose: 0.01 mg/kg/injection, schedule: Q01DX009 (ip), vehicle: saline
  T/C: 172 % of control
dose: 0.02 mg/kg/injection, schedule: Q01DX009 (ip), vehicle: saline
  T/C: 213 % of control
dose: 0.07 mg/kg/injection, schedule: Q04DX003 (ip), vehicle: saline
  T/C: 122 % of control
dose: 0.11 mg/kg/injection, schedule: Q04DX003 (ip), vehicle: saline
  T/C: 154 % of control
dose: 0.36 mg/kg/injection, schedule: Q01DX009 (ip), vehicle: saline
  T/C: 104 % of control and 218 % of control
dose: 0.56 mg/kg/injection, schedule: Q01DX009 (ip), vehicle: saline
  T/C: 231 % of control and 260 % of control and 90 % of control
dose: 0.75 mg/kg/injection, schedule: Q04DX003 (ip), vehicle: saline
  T/C: 213 % of control
dose: 0.84 mg/kg/injection, schedule: Q01DX009 (ip), vehicle: saline
  T/C: 231 % of control
dose: 0.99 mg/kg/injection, schedule: Q04DX003 (ip), vehicle: saline
  T/C: 225 % of control
dose: 1.5 mg/kg/injection, schedule: Q04DX003 (ip), vehicle: saline
  T/C: 240 % of control and 250 % of control
dose: 2.25 mg/kg/injection, schedule: Q04DX003 (ip), vehicle: saline
  T/C: 150 % of control
dose: 2.3 micrograms/kg/injection, schedule: Q01DX009 (ip), vehicle: saline
  T/C: 87 % of control
dose: 19.0 micrograms/kg/injection, schedule: Q01DX009 (ip), vehicle: saline
  T/C: 160 % of control
dose: 44.0 micrograms/kg/injection, schedule: Q01DX009 (ip), vehicle: saline
  T/C: 158 % of control
dose: 66.0 micrograms/kg/injection, schedule: Q01DX009 (ip), vehicle: saline
  T/C: 220 % of control

## O=C1CC2C3Nc4ccccc4C3CCN2C2=C1CC(OC(=O)c1ccccc1)CC2 (stereo not drawn)
[8]
  T/C: 104 % of control
[9]
  T/C: 104 % of control
[16]
  T/C: 86 % of control

## CCNc1cc(Cl)nc(N)n1
[12]
  T/C: 95 % of control
[7]
  T/C: 104 % of control
[8]
  T/C: 104 % of control
[5]
  T/C: 108 % of control
[6]
  T/C: 95 % of control
[17]
  T/C: 112 % of control

## CC(C)(C1c2ccccc2C(=NO)c2ccccc21)[N+](=O)[O-] (stereo not drawn)
[9]
  T/C: 109 % of control
[5]
  T/C: 91 % of control
[16]
  T/C: 90 % of control
[6]
  T/C: 100 % of control
dose: 400.0 mg/kg/injection, schedule: Q01DX009 (ip), vehicle: saline with Tween-80
  T/C: 100 % of control
[17]
  T/C: 91 % of control

## O=C(O)COc1c(Br)cc(Br)cc1Br
dose: 50.0 mg/kg/injection, schedule: Q01DX009 (ip), vehicle: Klucel (hydroxypropylcellulose) (HPC)
  T/C: 90 % of control
[4]
  T/C: 90 % of control
dose: 200.0 mg/kg/injection, schedule: Q01DX009 (ip), vehicle: Klucel (hydroxypropylcellulose) (HPC)
  T/C: 110 % of control

## COc1cccc(CC2=NCCc3cc(OC)c(OC)cc32)c1
[13]
  T/C: 108 % of control
[14]
  T/C: 94 % of control
[15]
  T/C: 94 % of control
dose: 25.0 mg/kg/injection, schedule: Q04DX003 (ip), vehicle: saline
  T/C: 87 % of control
dose: 50.0 mg/kg/injection, schedule: Q01DX009 (ip), vehicle: saline
  T/C: 95 % of control and 98 % of control
dose: 50.0 mg/kg/injection, schedule: Q04DX003 (ip), vehicle: saline
  T/C: 91 % of control

## COC(=O)c1cc([N+](=O)[O-])c(Cl)c([N+](=O)[O-])c1
[1]
  T/C: 109 % of control
[2]
  T/C: 104 % of control
[3]
  T/C: 100 % of control
dose: 25.0 mg/kg/injection, schedule: Q04DX003 (ip), vehicle: Klucel (hydroxypropylcellulose) (HPC)
  T/C: 100 % of control
dose: 50.0 mg/kg/injection, schedule: Q04DX003 (ip), vehicle: Klucel (hydroxypropylcellulose) (HPC)
  T/C: 105 % of control

## Cc1ccc2c(C)c3ccc4ccccc4c3c[n+]2c1
dose: 20.0 mg/kg/injection, schedule: Q04DX003 (ip), vehicle: saline
  T/C: 118 % of control
dose: 40.0 mg/kg/injection, schedule: Q04DX003 (ip), vehicle: saline
  T/C: 118 % of control

## O=NN(CCCl)C(=O)NC1CCC(NC(=O)N(CCCl)N=O)CC1 (stereo not drawn)
dose: 11.0 mg/kg/injection, schedule: Q04DX003 (ip), vehicle: saline with Tween-80
  T/C: 229 % of control
dose: 13.0 mg/kg/injection, schedule: Q01DX009 (ip), vehicle: saline with Tween-80
  T/C: 187 % of control
dose: 20.0 mg/kg/injection, schedule: Q01DX009 (ip), vehicle: saline with Tween-80
  T/C: 250 % of control and 272 % of control
dose: 22.0 mg/kg/injection, schedule: Q04DX003 (ip), vehicle: saline with Tween-80
  T/C: 209 % of control and 220 % of control
dose: 30.0 mg/kg/injection, schedule: Q01DX009 (ip), vehicle: saline with Tween-80
  T/C: 272 % of control
dose: 44.0 mg/kg/injection, schedule: Q01DX009 (ip), vehicle: saline with Tween-80
  T/C: 272 % of control
dose: 44.0 mg/kg/injection, schedule: Q04DX003 (ip), vehicle: saline with Tween-80
  T/C: 272 % of control
dose: 66.0 mg/kg/injection, schedule: Q01DX009 (ip), vehicle: saline with Tween-80
  T/C: 240 % of control and 272 % of control
dose: 88.0 mg/kg/injection, schedule: Q04DX003 (ip), vehicle: saline with Tween-80
  T/C: 272 % of control and 300 % of control
[9]
  T/C: 224 % of control and 192 % of control
dose: 133.0 mg/kg/injection, schedule: Q04DX003 (ip), vehicle: saline with Tween-80
  T/C: 300 % of control
dose: 150.0 mg/kg/injection, schedule: Q01DX009 (ip), vehicle: saline with Tween-80
  T/C: 176 % of control
[16]
  T/C: 115 % of control
[6]
  T/C: 300 % of control
dose: 300.0 mg/kg/injection, schedule: Q04DX003 (ip), vehicle: saline with Tween-80
  T/C: 210 % of control

## CCOC(=O)C1=C(C)NC(C)=C(C(=O)OCC)C1c1ccccc1
[8]
  T/C: 95 % of control
[16]
  T/C: 95 % of control
